Laboratory results taken from patent US11932626B2, “2-pyrimidone analogs as potent antiviral agents against Alphaviruses” (priority 2020, dated 2024).
pEC50: −log10 of the molar value.

Assays:
in vitro = conditions: human
CHIKV = CHIKV virus titer reduction (VTR) assay in NHDF cells; type: cell-based; conditions: Chikungunya virus; for log reduction at 10 µM: CHIKV titer reduction at 10 μM, normal human dermal fibroblasts (NHDF) cells; for EC90: effective concentration of 90% inhibition of virus in a VTR assay, NHDF cells
[1] = system: CHIKV linked NanoLuc luciferase reporter; experiment: microbe, parasite or virus in culture; type: cell-based; conditions: Chikungunya virus, read-out: CHIKV EC50
VEEV = experiment: microbe, parasite or virus in culture; type: cell-based; conditions: Venezuelan equine encephalitis virus, NHDF; for EC90: read-out: VEEV EC90; for log reduction at 10 µM: read-out: VEEV VTR
VEEV (TC-83) = experiment: microbe, parasite or virus in culture; type: cell-based; conditions: Venezuelan equine encephalitis virus, read-out: VEEV EC50

Compound | CC50 (in vitro) [µM] | log reduction at 10 µM (CHIKV) | EC90 (CHIKV) [µM] | pEC50 [1] | EC90 (VEEV) [µM] | pEC50 (VEEV (TC-83)) | log reduction at 10 µM (VEEV)
COC(=O)c1c(SCC(=O)NC23CC4CC(CC(C4)C2)C3)nc(=O)[nH]c1C [compound 1] | > 127 | 6.9 | 0.089 | 6.18 | 1.9 | 5.36 | 
Cc1[nH]c(=O)nc(SCC(=O)NC23CC4CC(CC(C4)C2)C3)c1C#N [compound 2] | > 40 | 1.25 |  | 4.64 |  | < 4.40 | 1.1
O=C(CSc1cc[nH]c(=O)n1)NC12CC3CC(CC(C3)C1)C2 [compound 3, N-(Adamantan-1-Yl)-2-((2-Oxo-1,2-Dihydropyrimidin-4-Yl)Thio)Acetamide] | > 40 | 7.44 | 0.31 | 6.30 | 0.31 | 5.60 | 4.49
O=C(CSc1cc[nH]c(=O)n1)NC1C2CC3CC(C2)CC1C3 (stereo not shown) [compound 4, N-(Adamantan-2-Yl)-2-((2-Oxo-1,2-Dihydropyrimidin-4-Yl)Thio)Acetamide] | > 40 | 7.3 | 0.61 | 6.36 |  | 5.77 | 5.88
CC(C)Cc1cc(C(=O)NCCC23CC4CC(CC(C4)C2)C3)nc(=O)[nH]1 [compound 5, N-(2-(Adamantan-1-Yl)Ethyl)-6-Isobutyl-2-Oxo-1,2-Dihydropyrimidine-4-Carboxamide] | > 40 |  |  | 4.45 |  | < 4.40 | 
O=C(CNc1cc[nH]c(=O)n1)NC12CC3CC(CC(C3)C1)C2 [compound 6, N-(adamantan-1-yl)-2-((2-oxo-1,2-dihydropyrimidin-4-yl)amino)acetamide] | > 40 |  |  | 4.93 |  | < 4.40 | 
O=C(COc1cc[nH]c(=O)n1)NC1C2CC3CC(C2)CC1C3 (stereo not shown) [compound 8, N-(Adamantan-2-Yl)-2-((2-Oxo-1,2-Dihydropyrimidin-4-Yl)Oxy)Acetamide] | > 40 | 1.05 | 0.21 | < 4.40 | 0.08 | < 4.40 | 1.94
Cc1cc(OCC(=O)NC23CC4CC(CC(C4)C2)C3)nc(=O)[nH]1 [compound 9, N-(Adamantan-1-Yl)-2-((6-Methyl-2-Oxo-1,2-Dihydropyrimidin-4-Yl)Oxy)Acetamide] | > 40 | 1.81 | 3.5 | 5.92 | 1.1 | 4.70 | 1.37
CC(C)Cc1cc(OCC(=O)NC23CC4CC(CC(C4)C2)C3)nc(=O)[nH]1 [compound 10, N-(Adamantan-1-Yl)-2-((6-Isobutyl-2-Oxo-1,2-Dihydropyrimidin-4-Yl)Oxy)Acetamide] | > 40 | 8.16 | 0.31 | 5.94 | 1.2 | 4.71 | 2.74
O=C(COc1cc(C2CC2)[nH]c(=O)n1)NC12CC3CC(CC(C3)C1)C2 [compound 11, N-(Adamantan-1-Yl)-2-((6-Cyclopropyl-2-Oxo-1,2-Dihydropyrimidin-4-Yl)Oxy)Acetamide] | > 40 | 1.05 | 0.56 | 6.62 | 1.1 | 4.69 | 2.97
O=C(COc1cc(C2CCC2)[nH]c(=O)n1)NC12CC3CC(CC(C3)C1)C2 [compound 12, N-(Adamantan-1-Yl)-2-((6-Cyclobutyl-2-Oxo-1,2-Dihydropyrimidin-4-Yl)Oxy)Acetamide] | > 40 | 3.31 | 0.1 | 6.96 | 0.1 | 5.73 | 3.1
O=C(COc1cc(C2CCCC2)[nH]c(=O)n1)NC12CC3CC(CC(C3)C1)C2 [compound 13, N-(Adamantan-1-Yl)-2-((6-Cyclopentyl-2-Oxo-1,2-Dihydropyrimidin-4-Yl)Oxy)Acetamide] | > 40 | 5.93 | 0.04 | 5.91 | 4.5 | 4.76 | 1.94
O=C(COc1cc(C2CC(F)(F)C2)[nH]c(=O)n1)NC12CC3CC(CC(C3)C1)C2 [compound 14, N-(Adamantan-1-Yl)-2-((6-(3,3-Difluorocyclobutyl)-2-Oxo-1,2-Dihydropyrimidin-4-Yl)Oxy)Acetamide] | > 40 | 3.17 | 0.07 | > 7.11 | 0.03 | 6.08 | 8.19
O=C(COc1cc(-c2ccccc2)[nH]c(=O)n1)NC12CC3CC(CC(C3)C1)C2 [compound 15, N-(Adamantan-1-Yl)-2-((2-Oxo-6-Phenyl-1,2-Dihydropyrimidin-4-Yl)Oxy)Acetamide] | > 40 | 8.93 | 2.7 | 5.83 | 2.02 | 4.68 | 3.25
O=C(COc1cc(C(F)(F)F)[nH]c(=O)n1)NC12CC3CC(CC(C3)C1)C2 [compound 16, N-(Adamantan-1-Yl)-2-((2-Oxo-6-(Trifluoromethyl)-1,2-Dihydropyrimidin-4-Yl)Oxy)Acetamide] | > 40 | 1.09 | 15 | < 4.40 | > 10 | < 4.40 | 0
N#Cc1ccc(-c2cc(OCC(=O)NC34CC5CC(CC(C5)C3)C4)nc(=O)[nH]2)cc1 [compound 17, N-(Adamantan-1-Yl)-2-((6-(4-Cyanophenyl)-2-Oxo-1,2-Dihydropyrimidin-4-Yl)Oxy)Acetamide] | > 40 | 1.59 | > 40 | < 4.40 | 9.8 | < 4.40 | 3.69
CC(C)(C)c1ccc(NC(=O)c2cc[nH]c(=O)n2)cc1 [compound 30, N-(4-(Tert.-Butyl)Phenyl)-2-Oxo-1,2-Dihydropyrimidine-4-Carboxamide] | > 40 |  |  | 4.58 |  | < 4.40 | 
CC(C)Cc1cc(C(=O)Nc2ccc(C(C)(C)C)cc2)nc(=O)[nH]1 [compound 31, N-(4-(Tert.-Butyl)Phenyl)-6-Isobutyl-2-Oxo-1,2-Dihydropyrimidine-4-Carboxamide] | > 40 |  |  | 4.88 |  | < 4.40 | 
O=C(COc1cc(OCCO)[nH]c(=O)n1)NC12CC3CC(CC(C3)C1)C2 [compound 32, N-(adamantan-1-yl)-2-((6-(2-hydroxyethoxy)-2-oxo-1,2-dihydropyrimidin-4-yl)oxy)acetamide] | > 40 | 3.45 | 0.61 | 5.33 |  | < 4.40 | 
O=C(COc1nc(=O)[nH]c(N2CCOCC2)c1F)NC12CC3CC(CC(C3)C1)C2 [compound 33, N-(Adamantan-1-Yl)-2-((5-Fluoro-6-Morpholino-2-Oxo-1,2-Dihydropyrimidin-4-Yl)Oxy)Acetamide] | > 40 | 6.08 | 0.15 | 5.74 |  | 4.62 | 
CCCCOC(=O)c1cc(SCC(=O)NC23CC4CC(CC(C4)C2)C3)nc(=O)[nH]1 [compound 39, Butyl 6-((2-((-Adamantan-1-Yl)Amino)-2-Oxoethyl)Thio)-2-Oxo-2,3-Dihydropyrimidine-4-Carboxylate] | > 40 |  |  | < 4.40 |  | < 4.40 | 
O=C(CSc1cc(C(=O)O)[nH]c(=O)n1)NC12CC3CC(CC(C3)C1)C2 [compound 40, 6-((2-((adamantan-1-yl)amino)-2-oxoethyl)thio)-2-oxo-2,3-dihydropyrimidine-4-carboxylic acid] | > 40 |  |  | < 4.40 |  | < 4.40 | 
O=C(CSc1cc[nH]c(=O)n1)NCC12CC3CC(CC(C3)C1)C2 [compound 41, N-((Adamantan-1-Yl)Methyl)-2-((2-Oxo-1,2-Dihydropyrimidin-4-Yl)Thio)Acetamide] | > 40 |  |  | < 4.40 |  | < 4.40 | 
O=C(NC12CC3CC(CC(C3)C1)C2)c1cc[nH]c(=O)n1 [compound 42, N-((Adamantan-1-Yl)-2-Oxo-1,2-Dihydropyrimidine-4-Carboxamide] | > 40 |  |  | < 4.40 |  | < 4.40 | 
CC(C)Cc1cc(C(=O)NC23CC4CC(CC(C4)C2)C3)nc(=O)[nH]1 [compound 43, N-(Adamantan-1-Yl)-6-Isobutyl-2-Oxo-1,2-Dihydropyrimidine-4-Carboxamide] | > 40 |  |  | < 4.40 |  | < 4.40 | 
O=C(COc1cc(OC2COC2)[nH]c(=O)n1)NC12CC3CC(CC(C3)C1)C2 [compound 53, N-(Adamantan-1-Yl)-2-((6-(Oxetan-3-Yloxy)-2-Oxo-1,2-Dihydropyrimidin-4-Yl)Oxy)Acetamide] | > 40 |  |  | 4.55 |  | < 4.40 | 
CC(C)Oc1[nH]c(=O)nc(OCC(=O)NC23CC4CC(CC(C4)C2)C3)c1F [compound 54, N-(Adamantan-1-Yl)-2-((5-Fluoro-6-Isopropoxy-2-Oxo-1,2-Dihydropyrimidin-4-Yl)Oxy)Acetamide] | > 40 |  |  | 4.67 |  | < 4.40 | 
O=C(COc1cc(OCC(F)(F)F)[nH]c(=O)n1)NC12CC3CC(CC(C3)C1)C2 [compound 57, N-(adamantan-1-yl)-2-((2-oxo-6-(2,2,2-trifluoroethoxy)-1,2-dihydropyrimidin-4-yl)oxy)acetamide] | > 40 | 7.79 | 0.3 | 5.53 |  | < 4.40 | 
